Test results: patent EP4715056A1, “BIO-BASED TRANS-ACONITATE, PREPARATION METHOD THEREFOR AND USE THEREOF” (Qingdao Institute of Bioenergy and Bioprocess Technology, …, priority 2023, dated 2024)

Assay: Acid value (KOH titration)
Assay type: physicochemical
Conditions: aconitate/citrate products, Table 4
Method: The aconitates and citrates prepared in the above examples and comparative examples were tested for acid value, purity, chromaticity, yield, triester conversion rate, and water content. […] The mixture was neutralized with 0.02 mol·L^-1 potassium hydroxide aqueous solution until a faint pink color appears, and the consumed volume Vo was recorded. 1 g of the sample (accurate to 0.01 g) was weighed using a ground-neck conical flask, then one portion of the above neutralized solution was added. After the sample was completely dissolved, the sample was titrated with 0.02 mol·L^-1 potassium hydroxide-ethanol standard titration solution (the titration should be completed within 30 seconds) until a faint pink color appeared and persisted for 5 seconds without fading, which was considered as an end point. The consumed volume V was recorded. […] Chromatographic column: C18 column; injector: 10 µL micro-syringe; solvent: acetonitrile (HPLC grade); acquisition time: 15 min; mobile phase: 80% acetonitrile (HPLC grade) and 20% deionized water; injection volume: 1 µL; wavelength: 230 nm.

Row | SMILES | Acid value [KOH/g]
1 | CCCCOC(=O)C=C(CC(=O)OCCCC)C(=O)OCCCC [Example 30, tributyl aconitate] | 0.05
2 | CCCCOC(=O)C=C(CC(=O)OCCCC)C(=O)OCCCC [Example 23, tributyl aconitate] | 0.05
3 | CCCCOC(=O)C=C(CC(=O)OCCCC)C(=O)OCCCC [Example 36, tributyl aconitate] | 0.05
4 | CCCCOC(=O)C=C(CC(=O)OCCCC)C(=O)OCCCC [Example 33, tributyl aconitate] | 0.05
5 | CCCCOC(=O)C=C(CC(=O)OCCCC)C(=O)OCCCC [Example 35, tributyl aconitate] | 0.05

Assay: Residual amounts of fat-soluble and water-soluble pigments (HPLC)
Assay type: physicochemical
Conditions: aconitate/citrate products, Table 4
Method: 7. Residual amounts of fat-soluble pigments and water-soluble pigments: • a high-performance liquid chromatograph (HPLC) was used, and the instrument sensitivity and stability of the detector should comply with the provisions of GB/T 16631-2008. Chromatographic column: C18 column; injector: 10 µL micro-syringe; solvent: acetonitrile (HPLC grade); acquisition time: 15 min; mobile phase: 80% acetonitrile (HPLC grade) and 20% deionized water; injection volume: 1 µL; wavelength: 230 nm.
Test: the instrument was adjusted according to the above provisions. After the baseline was stable, 0.2 µL of the sample was injected using a micro-syringe, and the integrator or chromatographic workstation was started at the same time. A pigment concentration-integral area standard curve was established by testing the integral areas of pigments with different concentrations. When the pigment content was measured, the corresponding pigment integral area was automatically given by the instrument, and the pigment concentration was obtained by comparing with the standard curve. The ratio of the pigment concentration to the sample concentration is the pigment content.

Row | SMILES | Residual amounts of fat-soluble pigments [ppm] | Residual amounts of water-soluble pigments [ppm]
6 | CCCCOC(=O)C=C(CC(=O)OCCCC)C(=O)OCCCC [Example 30, tributyl aconitate] | 463 | 1501
7 | CCCCOC(=O)C=C(CC(=O)OCCCC)C(=O)OCCCC [Example 23, tributyl aconitate] | 1356 | 842
8 | CCCCOC(=O)C=C(CC(=O)OCCCC)C(=O)OCCCC [Example 36, tributyl aconitate] | 836 | 1368
9 | CCCCOC(=O)C=C(CC(=O)OCCCC)C(=O)OCCCC [Example 33, tributyl aconitate] | 395 | 4064
10 | CCCCOC(=O)C=C(CC(=O)OCCCC)C(=O)OCCCC [Example 35, tributyl aconitate] | 3475 | 5348

Assay: Tensile properties (GB/T 1040-2006): tensile modulus at 100%, elongation at break, elastic modulus
Assay type: physicochemical
Conditions: PVC plastic with 35 parts plasticizer; 50 mm/min, 25°C
Method: (§1) The aconitates and tributyl citrate prepared in the above examples and comparative examples were added as plasticizers to PVC resin to obtain PVC plastics. The PVC plastics include 100 parts of PVC resin, 35 parts of plasticizer, 2 parts of oxidized polyethylene wax, and 5 parts of octyltin maleate. The above raw materials were mixed and prepared using the same mixing process to obtain finished PVC products. The performance tests were performed on different plasticizers and the obtained PVC finished products in the above examples and comparative examples. […] Three points were selected for each group of samples, each point was tested once, and a median value was taken. • 2. […] Compatibility: tests were performed using a water value method. Since water molecules are polar, the compatibility between the plasticizer and water can characterize the compatibility between the plasticizer and polar materials (PVC, PLA, and nitrile rubber). When a certain plasticizer has good compatibility with water, it has good compatibility with PVC, and vice versa. In the experiment, 2.5 g of plasticizer and 25 g of acetone were added to a beaker, titrated with a burette filled with deionized water, and agitated while titrating until turbidity appears, and the volume of deionized water consumed was recorded. • 4. Glass transition temperature (Tg): the glass transition temperature was tested using a dynamic mechanical analyzer. Test conditions: nitrogen was taken as the carrier gas, at a test temperature range of -40 to 80°C, a heating rate of 3°C/min, and a frequency of 1 Hz.

Row | SMILES | Elastic modulus [MPa] | Elongation at break [%] | Tensile modulus at 100% [MPa]
11 | CCCCOC(=O)C=C(CC(=O)OCCCC)C(=O)OCCCC [Example 30, tributyl aconitate] | 134.8 | 241.7 | 15.8
12 | CCCCOC(=O)C=C(CC(=O)OCCCC)C(=O)OCCCC [Example 23, tributyl aconitate] | 128.7 | 239.4 | 15.6
13 | CCCCOC(=O)C=C(CC(=O)OCCCC)C(=O)OCCCC [Example 36, tributyl aconitate] | 137.4 | 243.4 | 15.9
14 | CCCCOC(=O)C=C(CC(=O)OCCCC)C(=O)OCCCC [Example 33, tributyl aconitate] | 204.5 | 223.7 | 18.2
15 | CCCCOC(=O)C=C(CC(=O)OCCCC)C(=O)OCCCC [Example 35, tributyl aconitate] | 348.6 | 173.4 | 19.8

Assay: Glass transition temperature (dynamic mechanical analyzer)
Assay type: physicochemical
Conditions: PVC plastic with 35 parts plasticizer; -40 to 80°C, 3°C/min, 1 Hz
Method: as §1

Row | SMILES | Tg [°C]
16 | CCCCOC(=O)C=C(CC(=O)OCCCC)C(=O)OCCCC [Example 30, tributyl aconitate] | 28.9
17 | CCCCOC(=O)C=C(CC(=O)OCCCC)C(=O)OCCCC [Example 23, tributyl aconitate] | 28.4
18 | CCCCOC(=O)C=C(CC(=O)OCCCC)C(=O)OCCCC [Example 36, tributyl aconitate] | 29.7
19 | CCCCOC(=O)C=C(CC(=O)OCCCC)C(=O)OCCCC [Example 33, tributyl aconitate] | 30.8
20 | CCCCOC(=O)C=C(CC(=O)OCCCC)C(=O)OCCCC [Example 35, tributyl aconitate] | 38.4

Assay: Compatibility (water value method)
Assay type: physicochemical
Conditions: 2.5 g plasticizer and 25 g acetone titrated with deionized water until turbidity; Table 5
Method: as §1

Row | SMILES | Compatibility [mL]
21 | CCCCOC(=O)C=C(CC(=O)OCCCC)C(=O)OCCCC [Example 30, tributyl aconitate] | 13.2
22 | CCCCOC(=O)C=C(CC(=O)OCCCC)C(=O)OCCCC [Example 23, tributyl aconitate] | 13.1
23 | CCCCOC(=O)C=C(CC(=O)OCCCC)C(=O)OCCCC [Example 36, tributyl aconitate] | 13.4
24 | CCCCOC(=O)C=C(CC(=O)OCCCC)C(=O)OCCCC [Example 33, tributyl aconitate] | 11.3
25 | CCCCOC(=O)C=C(CC(=O)OCCCC)C(=O)OCCCC [Example 35, tributyl aconitate] | 8.1

Assay: Chromaticity (platinum-cobalt colorimetry)
Assay type: physicochemical
Conditions: aconitate/citrate products, Table 4; colour comparison at 25°C
Method: 3. Chromaticity: preparation of 500# platinum-cobalt colorimetric standard stock solution: 1.2450 g of potassium chloroplatinate and 1.0000 g of cobalt chloride were weighed, with an accuracy of 0.0002 g, the mixture was dissolved in 100 mL of hydrochloric acid, and then diluted to 1000 mL with distilled water. This solution is just the 500# colorimetric standard comparison solution.
Preparation of colorimetric standards below 500#: different amounts of the 500# stock solution was prepared, and diluted with distilled water to the volume of a colorimetric tube to prepare colorimetric standard solutions of any number. The calculation formula is as follows: V = (N×V1)/500 [formula]
In the formula, V is the volume of the 500# standard stock solution taken to prepare the N# colorimetric standard solution, in mL; V1 is the volume of the colorimetric tube used, in mL; and N is the number of the colorimetric standard solution to be prepared.
Color comparison determination was performed at 25°C.

Row | SMILES | Chromaticity [Pt-Co]
26 | CCCCOC(=O)C=C(CC(=O)OCCCC)C(=O)OCCCC [Example 30, tributyl aconitate] | 65
27 | CCCCOC(=O)C=C(CC(=O)OCCCC)C(=O)OCCCC [Example 23, tributyl aconitate] | 60
28 | CCCCOC(=O)C=C(CC(=O)OCCCC)C(=O)OCCCC [Example 36, tributyl aconitate] | 60
29 | CCCCOC(=O)C=C(CC(=O)OCCCC)C(=O)OCCCC [Example 33, tributyl aconitate] | 100
30 | CCCCOC(=O)C=C(CC(=O)OCCCC)C(=O)OCCCC [Example 35, tributyl aconitate] | 300

Assay: Hardness (Shore hardness tester, GB/T 531-2008)
Assay type: physicochemical
Conditions: PVC plastic: 100 parts PVC resin, 35 parts plasticizer, 2 parts oxidized polyethylene wax, 5 parts octyltin maleate
Method: as §1, with “The PVC plastics include 100 parts of PVC resin, 35 parts of plasticizer, 2 parts of oxidized polyethylene wax, and 5 parts of octyltin maleate.” left out

Row | SMILES | Hardness/Shore D [Shore D]
31 | CCCCOC(=O)C=C(CC(=O)OCCCC)C(=O)OCCCC [Example 30, tributyl aconitate] | 43
32 | CCCCOC(=O)C=C(CC(=O)OCCCC)C(=O)OCCCC [Example 23, tributyl aconitate] | 43
33 | CCCCOC(=O)C=C(CC(=O)OCCCC)C(=O)OCCCC [Example 36, tributyl aconitate] | 43
34 | CCCCOC(=O)C=C(CC(=O)OCCCC)C(=O)OCCCC [Example 33, tributyl aconitate] | 47
35 | CCCCOC(=O)C=C(CC(=O)OCCCC)C(=O)OCCCC [Example 35, tributyl aconitate] | 55

Assay: Water content (Karl Fischer moisture meter)
Assay type: physicochemical
Conditions: aconitate/citrate products, Table 4
Excerpt: 6. Water content: a Karl Fischer moisture meter is used to test the water content (retained to two decimal places).

Row | SMILES | Water content [%]
36 | CCCCOC(=O)C=C(CC(=O)OCCCC)C(=O)OCCCC [Example 30, tributyl aconitate] | 0.04
37 | CCCCOC(=O)C=C(CC(=O)OCCCC)C(=O)OCCCC [Example 23, tributyl aconitate] | 0.03
38 | CCCCOC(=O)C=C(CC(=O)OCCCC)C(=O)OCCCC [Example 36, tributyl aconitate] | 0.04
39 | CCCCOC(=O)C=C(CC(=O)OCCCC)C(=O)OCCCC [Example 33, tributyl aconitate] | 0.04
40 | CCCCOC(=O)C=C(CC(=O)OCCCC)C(=O)OCCCC [Example 35, tributyl aconitate] | 0.03
